“And” between values parts separate entries of the source, which are not always exact repeats. Identical values can stand only once.
Assays:
[1] = TED14856 Part A: plasma pharmacokinetics of compound (1); format: in vivo, human; conditions: for Ctrough (Geometric Mean) / Ctrough (Mean ± SD) / CLss/F (Mean ± SD): Cycle1 Day 22, fasted; for CL/F (Mean ± SD) / t1/2z (Geometric Mean) / t1/2z (Mean ± SD): Cycle1 Day 1, fasted
[2] = test system: ER-positive and HER2-negative advanced breast cancer; experiment: TED14856 pooled population (Part A >=150 mg and Part B): post-hoc efficacy analyses and sub-populations; conditions: for Best Overall Response: Complete Response (CR), number of patients / Best Overall Response: Partial Response (PR), % of patients / Best Overall Response: Partial Response (PR), number of patients / Best Overall Response: Progressive Disease (PD), % of patients / Best Overall Response: Progressive Disease (PD), number of patients / Best Overall Response: Stable Disease (SD), % of patients / Best Overall Response: Stable Disease (SD), number of patients / Clinical Benefit Rate, % of patients / Clinical Benefit Rate, number of patients / Overall Response Rate (confirmed CR and PR), % of patients / Overall Response Rate (confirmed CR and PR), number of patients: no prior mTOR, CDK4/6, fulvestrant; for Clinical Benefit Rate (CBR): pooled population
[3] = repeated 200 mg once daily, N=3
[4] = repeated 400 mg once daily, N=3
[5] = repeated 600 mg once daily, N=3
[6] = All, pooled Part A ≥150 mg and Part B 400 mg (N = 14)
[7] = TED14856 2017-2019, pooled population n=59, setting 2-9L, prior CDK4/6, mTOR, fulvestrant allowed
[8] = TED14856 2017-2019, sub-population n=14, setting 2L+, no prior CDK4/6, mTOR, fulvestrant
[9] = TED14856 2017-2019, sub-population n=32, setting 3L, prior CDK4/6 allowed, prior mTOR not allowed, prior fulvestrant allowed
[10] = sub-population of 14 patients with neither prior targeted therapies nor SERD (3/14)

O=C(O)c1ccc2c(c1)CCCC(c1ccc(Cl)cc1Cl)=C2c1ccc(O[C@H]2CCN(CCCF)C2)cc1 [compound (1), 6-(2,4-dichlorophenyl)-5-[4-[(3S)-1-(3-fluoropropyl)pyrrolidin-3-yl]oxyphenyl]-8,9-dihydro-7H-benzo[7]annulene-2-carboxylic acid]
Ctrough (Geometric Mean) [1, 3]: (59.2) [73.6] ng/mL
Ctrough (Mean ± SD) [1, 3]: 76.1 ± 56.0 ng/mL
CLss/F (Mean ± SD) [1, 4]: 18.1 ± 17.4 L/h
Ctrough (Geometric Mean) [1, 4]: (253) [84.2] ng/mL
Ctrough (Mean ± SD) [1, 4]: 388 ng/mL and 388 ± 327 ng/mL
CLss/F (Mean ± SD) [1, 5]: 14.7 ± 3.96 L/h
Ctrough (Geometric Mean) [1, 5]: (314) [56.8] ng/mL
Ctrough (Mean ± SD) [1, 5]: 348 ± 197 ng/mL
CL/F (Mean ± SD) ([1]; single 20 mg, N = 1): 12.2 NC L/hr
t1/2z (Geometric Mean) ([1]; single 20 mg, N = 1): (4.86) [NC]^b hr
t1/2z (Mean ± SD) ([1]; single 20 mg, N = 1): 4.86 NC hr
CL/F (Mean ± SD) ([1]; single 150 mg, N = 1): 7.26 NC L/hr
t1/2z (Geometric Mean) ([1]; single 150 mg, N = 1): (6.42) [NC]^b hr
t1/2z (Mean ± SD) ([1]; single 150 mg, N = 1): 6.42 NC hr
CL/F (Mean ± SD) ([1]; single 200 mg, N=4): 24.2 ± 17.0 L/h
t1/2z (Geometric Mean) ([1]; single 200 mg, N=4): (7.31) [19.5] hr
t1/2z (Mean ± SD) ([1]; single 200 mg, N=4): 7.41 ± 1.45 h
CL/F (Mean ± SD) ([1]; single 400 mg, N=3): 9.86 ± 5.77 L/h
t1/2z (Mean ± SD) ([1]; single 400 mg, N=3): 10.6 ± 2.33 h
CL/F (Mean ± SD) ([1]; single 600 mg, N = 2): 15.2 NC L/hr
t1/2z (Geometric Mean) ([1]; single 600 mg, N = 2): (8.97) [NC]^c hr
t1/2z (Mean ± SD) ([1]; single 600 mg, N = 2): 9.45 NC hr
accumulation after repeated oral administration ([1]; up to 600 mg): limited accumulation
dose proportionality of exposure (Cmax, AUC0-24h) ([1]; up to 600 mg, single or multiple once daily administrations): did not deviate significantly from dose proportionality
Best Overall Response: Complete Response (CR), number of patients ([2]; 400 mg PART B (N = 11)): 0 n
Best Overall Response: Partial Response (PR), % of patients ([2]; 400 mg PART B (N = 11)): (27.3) %
Best Overall Response: Partial Response (PR), number of patients ([2]; 400 mg PART B (N = 11)): 3 n
Best Overall Response: Progressive Disease (PD), % of patients ([2]; 400 mg PART B (N = 11)): (18.2) %
Best Overall Response: Progressive Disease (PD), number of patients ([2]; 400 mg PART B (N = 11)): 2 n
Best Overall Response: Stable Disease (SD), % of patients ([2]; 400 mg PART B (N = 11)): (54.5) %
Best Overall Response: Stable Disease (SD), number of patients ([2]; 400 mg PART B (N = 11)): 6 n
Clinical Benefit Rate, % of patients ([2]; 400 mg PART B (N = 11)): (63.6) %
Clinical Benefit Rate, number of patients ([2]; 400 mg PART B (N = 11)): 7 n
Overall Response Rate (confirmed CR and PR), % of patients ([2]; 400 mg PART B (N = 11)): (27.3) %
Overall Response Rate (confirmed CR and PR), number of patients ([2]; 400 mg PART B (N = 11)): 3 n
Best Overall Response: Complete Response (CR), number of patients [2, 6]: 0 n
Best Overall Response: Partial Response (PR), % of patients [2, 6]: (21.4) %
Best Overall Response: Partial Response (PR), number of patients [2, 6]: 3 n
Best Overall Response: Progressive Disease (PD), % of patients [2, 6]: (21.4) %
Best Overall Response: Progressive Disease (PD), number of patients [2, 6]: 3 n
Best Overall Response: Stable Disease (SD), % of patients [2, 6]: (57.1) %
Best Overall Response: Stable Disease (SD), number of patients [2, 6]: 8 n
Clinical Benefit Rate, % of patients [2, 6]: (64.3) %
Clinical Benefit Rate, number of patients [2, 6]: 9 n
Overall Response Rate (confirmed CR and PR), % of patients [2, 6]: (21.4) %
Overall Response Rate (confirmed CR and PR), number of patients [2, 6]: 3 n
CBR [2, 7]: 35.6%
ORR [2, 7]: 6.8%
CBR [2, 8]: 64.3%
ORR [2, 8]: 21.4%
CBR [2, 9]: 46.9%
ORR [2, 9]: 12.5%
Clinical Benefit Rate (CBR) ([2]; ESR1 mutated patients (9/28)): 32.1%
Clinical Benefit Rate (CBR) ([2]; patients with wild-type ESR1 (12/30)): 40.0%
Complete Response (CR) ([2]; pooled: All, N=59, by investigator): 0 n
Complete Response (CR) ([2]; pooled: Part A >=150 mg, N=13, by investigator): 0 n
Complete Response (CR) ([2]; pooled: Part B 400 mg, N=46, by investigator): 0 n
ORR [2, 10]: 21.4%
PD [2, 10]: 21.4%
PRs [2, 10]: 21.4%
CBR ([2]; sub-population of 14 patients with neither prior targeted therapies nor SERD (9/14)): 64.3%
Complete Response (CR) ([2]; ≤3 prior lines, not both chemotherapy and CDK4/6 inhibitor, no mTOR inhibitor: All, N=32): 0 n
Complete Response (CR) ([2]; ≤3 prior lines, not both chemotherapy and CDK4/6 inhibitor, no mTOR inhibitor: Part A ≥150 mg, N=6): 0 n
Complete Response (CR) ([2]; ≤3 prior lines, not both chemotherapy and CDK4/6 inhibitor, no mTOR inhibitor: Part B 400 mg, N=26): 0 n
Best Overall Response: Complete Response (CR), number of patients ([2]; ≥150 mg PART A (N = 3)): 0 n
Best Overall Response: Partial Response (PR), number of patients ([2]; ≥150 mg PART A (N = 3)): 0 n
Best Overall Response: Progressive Disease (PD), % of patients ([2]; ≥150 mg PART A (N = 3)): 33.3%
Best Overall Response: Progressive Disease (PD), number of patients ([2]; ≥150 mg PART A (N = 3)): 1 n
Best Overall Response: Stable Disease (SD), % of patients ([2]; ≥150 mg PART A (N = 3)): 66.7%
Best Overall Response: Stable Disease (SD), number of patients ([2]; ≥150 mg PART A (N = 3)): 2 n
Clinical Benefit Rate, % of patients ([2]; ≥150 mg PART A (N = 3)): 66.7%
Clinical Benefit Rate, number of patients ([2]; ≥150 mg PART A (N = 3)): 2 n
Overall Response Rate (confirmed CR and PR), number of patients ([2]; ≥150 mg PART A (N = 3)): 0 n

Reference: patent publication US20200352905A1, “6-(2,4-DICHLOROPHENYL)-5-[4-[(3S)-1-(3-FLUOROPROPYL)PYRROLIDIN-3-YL]OXYPHENYL]-8,9-DIHYDRO-7H-BENZO[7]ANNULENE-2-CARBOXYLIC ACID FOR USE IN METASTATIC OR ADVANCED BREAST CANCER PATIENTS” (SANOFI, priority 2019, published 2020)
